Legend:
[1] = system: C57BF6/N male mice; assay: Neuropathic pain model (chronic constriction injury), Von Frey test; type: in vivo
[2] = target: T1, hNPFF2R (Homo sapiens, UniProt Q9Y5X5); assay: Glo Sensor cAMP assay in HEK-293 expressing hNPFF2R; type: cell-based; conditions: cells expressing hNPFF2R; forskolin 0.5 μM
T1 construct: expressed in transfected cells
Experimental: The functional characterization of the selected compounds was performed by Glo Sensor cAMP kinetic assay, a validated approach for measuring Gαi/s activation by GPCRs (DiRaddo et al., 2014; Gilissen et al., 2015). HEK-Glo cells expressing either NPFF1 or NPFF2 receptors were suspended (10^6 cells per mF) in physiological Hepes buffer (10 mM HEPES, 0.4 mM NaH2PO4, 137.5 mM NaCl, 1.25 mM MgCl2, 1.25 mM CaCl2, 6 mM KCl, 10 mM glucose and 1 mg/mF bovine serum albumin, pH 7.4) supplemented with 1 mM D-Fuciferine. After equilibration for 2 h at 25° C., luminescence levels were recorded in real time in 96-well plates using a Flexstation^R 3 (Molecular Devices, Sunnyvale Calif., USA). Non-specific effect of the different compounds was evaluated in HEK-Glo cells without any recombinant human RF-amide receptors. To test the agonist activity on NPFF1R and NPFF2R, compounds were injected 15 minutes before addition of forskolin (0.5 μM) and readings were pursued for 90 minutes. […] According to their preferential coupling to Gi/o proteins, the stimulation of NPFF1R and NPFF2R by agonists was monitored as a dose-dependent reduction in steady-state luminescence levels, reflecting the inhibition of forskolin-induced cAMP accumulation. […]

[3] = target: T2, hNPFF1R (Homo sapiens, UniProt Q9GZQ6); assay: Glo Sensor cAMP assay in HEK-293 expressing hNPFF1R; type: cell-based
T2 construct: expressed in transfected cells
Experimental: The functional characterization of the selected compounds was performed by Glo Sensor cAMP kinetic assay, a validated approach for measuring Gαi/s activation by GPCRs (DiRaddo et al., 2014; Gilissen et al., 2015). HEK-Glo cells expressing either NPFF1 or NPFF2 receptors were suspended (10^6 cells per mF) in physiological Hepes buffer (10 mM HEPES, 0.4 mM NaH2PO4, 137.5 mM NaCl, 1.25 mM MgCl2, 1.25 mM CaCl2, 6 mM KCl, 10 mM glucose and 1 mg/mF bovine serum albumin, pH 7.4) supplemented with 1 mM D-Fuciferine. After equilibration for 2 h at 25° C., luminescence levels were recorded in real time in 96-well plates using a Flexstation^R 3 (Molecular Devices, Sunnyvale Calif., USA). Non-specific effect of the different compounds was evaluated in HEK-Glo cells without any recombinant human RF-amide receptors. To test the agonist activity on NPFF1R and NPFF2R, compounds were injected 15 minutes before addition of forskolin (0.5 μM) and readings were pursued for 90 minutes. To evaluate their antagonist properties, compounds were pre-incubated with cells for 15 minutes before prototypical agonists for NPFF1R (RFRP-3) and NPFF2R (NPFF) receptors. According to their preferential coupling to Gi/o proteins, the stimulation of NPFF1R and NPFF2R by agonists was monitored as a dose-dependent reduction in steady-state luminescence levels, reflecting the inhibition of forskolin-induced cAMP accumulation. Experiments were performed at 25° C. in the presence of 0.5 mM IBMX to prevent the degradation of cAMP by phosphodiesterases.

[4] = target: T3, hNPFFR2 (Homo sapiens, UniProt Q9Y5X5); assay: Radioligand binding competition, membranes from CHO cells expressing hNPFFR2; conditions: 0.015 nM [D-Tyr1[125I], N-MePhe3]-NPFF, 1 hr at 25° C., read-out: NPFF2-R Ki
T3 construct: expressed in transfected cells; membranes
How it was run: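 CHO membranes (5–10 μg protein) stably expressing hNPFFR1 or hNPFFR2 incubated 1 h at 25 °C with 0.015 nM [D-Tyr1[125I], N-MePhe3]-NPFF in HEPES pH 7.4 with Ca2+, Mg2+, 0.1% BSA. Non-specific binding defined with 10 μM RFRP-3; bound radioactivity counted after GF/B filtration.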

T2 sequence (Q9GZQ6 whole entry): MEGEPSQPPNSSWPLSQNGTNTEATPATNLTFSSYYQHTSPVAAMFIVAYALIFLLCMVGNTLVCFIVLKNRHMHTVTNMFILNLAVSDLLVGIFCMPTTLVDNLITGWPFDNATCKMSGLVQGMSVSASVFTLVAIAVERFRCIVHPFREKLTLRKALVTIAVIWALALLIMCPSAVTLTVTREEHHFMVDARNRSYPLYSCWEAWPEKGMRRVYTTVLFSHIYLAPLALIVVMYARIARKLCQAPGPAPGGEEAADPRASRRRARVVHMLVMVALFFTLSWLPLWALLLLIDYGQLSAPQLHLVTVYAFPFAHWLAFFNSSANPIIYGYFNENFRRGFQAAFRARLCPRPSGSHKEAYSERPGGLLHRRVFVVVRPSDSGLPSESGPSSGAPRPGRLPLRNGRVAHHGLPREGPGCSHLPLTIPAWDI
T3 sequence (Q9Y5X5 whole entry): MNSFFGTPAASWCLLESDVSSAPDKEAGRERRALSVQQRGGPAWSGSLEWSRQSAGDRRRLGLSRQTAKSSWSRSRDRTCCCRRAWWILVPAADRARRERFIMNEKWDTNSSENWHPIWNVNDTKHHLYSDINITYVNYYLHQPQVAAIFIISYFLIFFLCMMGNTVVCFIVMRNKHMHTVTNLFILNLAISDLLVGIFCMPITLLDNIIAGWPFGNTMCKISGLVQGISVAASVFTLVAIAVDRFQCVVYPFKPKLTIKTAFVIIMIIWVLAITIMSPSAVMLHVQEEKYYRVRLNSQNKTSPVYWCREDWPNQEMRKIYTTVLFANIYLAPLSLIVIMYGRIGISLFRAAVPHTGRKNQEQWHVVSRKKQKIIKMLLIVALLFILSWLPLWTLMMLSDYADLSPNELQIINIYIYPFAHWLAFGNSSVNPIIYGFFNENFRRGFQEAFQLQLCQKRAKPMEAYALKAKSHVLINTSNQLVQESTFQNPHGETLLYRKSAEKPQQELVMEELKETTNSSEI
T1 sequence (Q9Y5X5 whole entry): as above

`Nc1ccc(-c2cccc(Cl)c2Cl)c(N)n1` [Compound 1j, 3-(2,3-dichlorophenyl)pyridine-2,6-diamine] was tested. Which “mechanical allodynia after CCI (allodynia index d11-d21), drug alone” value ([1]; morphine 3 mg/kg sc. alone or 1j 5 mg/kg p.o. alone, FIG. 4B) did it give?
Its value is “significantly attenuated the mechanical allodynia”.

And the “mechanical allodynia after CCI (allodynia index d11-d21), pre-treatment before morphine” value ([1]; mouse, in vivo)?
The value was “significantly enhanced morphine analgesia effect on neuropathic pain”.

And the “effect of compound tested alone (agonist activity)” value [2]?
The value was “had no effect”.

What about the “antagonist activity: effect on dose response curve of NPVF (RFRP-3), forskolin-stimulated cAMP” value ([3]; HEK-293 cells expressing hNPFF1R, FIG. 7) of the same compound?
The value was “efficiently shifted to the right the dose response curve of NPVF”.

What about the “effect of compound tested alone (agonist activity)” value ([3]; cells expressing hNPFF1R, forskolin 0.5 μM) of the same compound?
The value was “had no effect”.

What about the Ki [4] of the same compound?
Its Ki is 2000 nM.

Source: patent US20210221784A1, “COMPOUNDS AND COMPOSITIONS FOR THE TREATMENT OF PAIN” (Université de Strasbourg, priority 2018, published 2021)
